Data reported in patent publication US10912752B2, “Methods and compositions for reducing ocular discomfort” (Brien Holden Vision Institute Limited, priority 2012, dated 2021).
Entries after “also recorded” stand apart in the source; their conditions may differ.

Assays:
HCLE cells = assay: Flow cytometry Annexin V/PI apoptosis/necrosis under hyperosmotic stress; format: cell-based, human; conditions: 16 h; for percentage of healthy cells (Annexin V and PI negative): 500 mOsm + 10 mM vs 500 mOsm; for total percentage of apoptotic and necrotic (damaged) cells: 500 mOsm + 10 mM, flow cytometry
Method: Cell volume and Live/Dead staining via flow cytometry were performed using the Attune® Acoustic focusing Cytometer (Life Technologies™ Applied Biosystems). Annexin V and PI kit (Invitrogen™) was used to analyse the non-apoptotic, and the early and late apoptotic cells. Staining was performed as per manufacturer's instructions. Analysis of Annexin staining was conducted using the blue/violet laser with excitation/emission spectra of 480/500 nm (20 mW) and the PI staining analysis was conducted using blue/red laser with an excitation/emission spectra of 490/635 nm.
500 mOsm and exposure time (16 h) to be the most informative under which to observe hyperosmolality induced cellular responses of HCLE (results not shown). Thus, in the present study, a hyperosmotic medium of 500 mOsm and exposure time of 16 h were used throughout. Hyperosmolar media were prepared by the addition of NaCl to the medium. Medium osmolarity was measured using a Vapro 5520 vapour pressure osmometer (Wescor, Logan, Utah). Subconfluent cells were exposed to hyperosmolar media in the presence or absence of betaine (5 or 10 mM). Mitochondrial and proliferation activities for cell viability; TNF-α production; caspase activity and Annexin V/PI staining for apoptosis; and cellular shrinkage were monitored as detailed below.
It was observed that an osmolarity of 450 mOsM and 500 mOsM and exposure time of 16 hours was the most optimal for studying hyperosmolarity induced cellular responses of HCLE (results not shown). Therefore, a hyperosmolar medium of 450 mOsM and 500 mOsM and an exposure time of 16 hours were used throughout the study. The hyperosmolarity of the medium was achieved by addition of an appropriate amount of NaCl to it, and further measuring using Vapro 5520 vapor pressure osmometer (Wescor, Logan, Utah). Cells, having reached 70%-80% confluence were exposed to hyperosmolar media in the presence or absence of 10 mM L-Carnitine. Cellular shrinkage in relation to hyperosmotic stress, Annexin V/PI staining for apoptosis, Caspase activities and TNF-α production were analysed.
Cultured human corneal limbal epithelial (HCLE) cells were exposed to culture medium with or without carnitine (10 mM) at 300 mOsm (isotonic), 450 mOsm (moderate), and 500 mOsm (hyperosmotic) for 16 h. Induction of apoptosis was detected by quantification of the proteolytic activity of caspase-8, caspase-9, or caspase-3/7 using caspase activity assays, and production of tumor necrosis factor (TNF)-α, a known apoptosis inducer, using ELISA. Annexin V and Propidium iodine (PI) staining was performed to detect the percentage of apoptotic cells using confocal microscopy and flow cytometry.

[1] = test system: ICES-induced murine dry eye model; assay: Corneal fluorescein staining in ICES-induced murine dry eye model; format: in vivo, C57BL/6 mice; conditions: for corneal staining from Day 21 to Day 35: Schedule 2, within-group change
From the text: A total of 110 female C57BL/6 mice (age 4-6 weeks, from the Animal Breeding Unit of Wenzhou Medical College) were used in the study. These mice were carefully selected out of 350 mice by clinical examination using slit-lamp microscopy and corneal staining. Only those healthy mice with no corneal infections, infiltration or leukom, and with total scores of corneal fluorescein staining of less than 10, were selected for the study.
This study used the ICES-induced murine dry eye model in which relative humidity, airflow and temperature were maintained at 15.7±3.2% (mean±SD), 2.1±0.2 m/s and 21-24° C., respectively, and mice began developing dry eye conditions similar to those in humans from Day 21 post-housing (Chen et al A Murine Model of Dry Eye Induced by an Intelligently Controlled Environmental System. Investigative Ophthalmology & Visual Science, 2008: 49(4):1386-1391). The relative humidity and temperature of ICES systems were monitored daily.
Mice in different groups were labelled using ear marks. The mice were housed in cages (maximum of five animals per cage) and two independent cages were placed in each ICES system. Two schedules were used for topical administration of test compounds, Betaine (0.234% (10 mM) in sterile PBS) or Carnitine (0.25% (10 mM) in sterile PBS), or sterile PBS as a control. Mice without any topical treatment were used as another control. In the first schedule, compounds were administered to mice at the beginning of their housing in ICES (Schedule 1) to study the effect of these compounds on the development of dry eye. In the second schedule compound administration began after mice had been housed in ICES for 21 days (Schedule 2), by which time the dry eye condition had been developed (Chen et al. IOVS 2008), to study the effect of these compounds on treatment of dry eye. Compounds were administered topically to both eyes of the animal. The compound solution made in PBS was topically administered four times daily for up to a total of 35 days for Schedule 1, or 14 days for Schedule 2, during which the mice remained housed in ICES.
Four (4×) mice in each cage received individual treatment: A, B, C, D where A=Betaine (10 mM in PBS); B=Carnitine (10 mM in PBS); C=PBS only; D=No treatment.
The cornea was examined using slit-lamp microscopy with cobalt blue light immediately after fluorescein instillation. The stained area was assessed and graded using the 2007 Dry Eye Work Shop (DEW) recommended grading system. The mouse corneas were rated ranging from 0 to 4 with the cornea surface divided into five regions (0 dot, Grade 0; 1-5 dots, Grade 1; 6-15 dots, Grade 2; 16-30 dots, Grade 3; and […], Grade 4). The total score from the five regions was recorded.

TNF-α = assay: qRT-PCR of mouse conjunctiva, ICES dry eye model; format: in vivo, C57BL/6 mice; conditions: normalized to GAPDH; for mRNA expression of TNF-α vs PBS treatment group: Schedule 1, Day 21, conjunctiva
From the text: (§1) For Schedule 1, six (6×) mice per each group at the end of Day 21 and five (5×) mice from each group at the end of Day 35 post-housing in ICES and undergoing the treatment were sacrificed with an overdose of a mixture of ketamine and xylazine for qRT-PCR evaluation of […] inflammatory responses. On the other hand, for Schedule 2, three (3×) mice were sacrificed at the end of Day 21, and all the other mice were sacrificed at the end of Day 35 post-housing in ICES and undergoing the treatment. Additionally, seven healthy animals which were not housed in ICES and received no treatment were euthanized as healthy controls for comparison.
(§2) For qRT-PCR detection of IL-1β, IL-6, IL-17, TNF-α, and GAPDH, total RNA from conjunctivas (2 eyes/group/schedule) were extracted and pooled from each of the five experimental groups using the RNA isolation kit according to the manufacturer's instructions (PicoPure RNA isolation kit, 40 isolations, Arcturus). cDNA was synthesized from 1-μg of total RNA using random primer and M-MuLV reverse transcriptase. The primer sequences for qRT-PCR detection of these mediators have been designed in preparation for qRT-PCR work (Table 1).
(§3) Expression of IL-1β, IL-6, IL-17, or TNF-α detected at mRNA level from Real-time PCR were normalized to that of the housekeeping gene GAPDH. Total RNA were collected from the pooled conjunctiva from 2 eyes of each group (total 6× eyes per each treatment group were used for qRT-PCR).

IL-17 = assay: qRT-PCR of mouse conjunctiva, ICES dry eye model; format: in vivo, C57BL/6 mice; conditions: normalized to GAPDH; for mRNA expression of IL-17 vs PBS treatment group: Schedule 1, Day 21, conjunctiva
From the text: as §1, §2, §3

[2] = Schedule 1, Day 14, 10 mM in PBS topically four times daily
[3] = Schedule 1, Day 21, 10 mM in PBS topically four times daily
[4] = Schedule 2, Day 35, conjunctiva

Row | SMILES | percentage of healthy cells (Annexin V and PI negative) (HCLE cells) | total percentage of apoptotic and necrotic (damaged) cells (HCLE cells) [%] | corneal staining vs control C (PBS only) or D (no treatment) [1, 2] | corneal staining vs control C (PBS only) or D (no treatment) [1, 3] | corneal staining from Day 21 to Day 35 [1] | mRNA expression of TNF-α vs PBS treatment group (TNF-α) | mRNA expression of TNF-α vs PBS control (C) (TNF-α; [4]) | mRNA expression of IL-17 vs PBS treatment group (IL-17) | increase in the percentage of un-damaged (non-apoptotic/non-necrotic) cells (HCLE cells; 10 mM, 500 mOsm, vs hyperosmotically stressed HCLE) [%] | corneal staining vs control C or D ([1]; Schedule 1, Day 35, 10 mM in PBS topically four times daily) | corneal staining vs controls C or D ([1]; Schedule 2 (treatment from Day 22 after dry eye developed), Day 35) | mRNA expression of TNF-α vs PBS treatment group (TNF-α; listed as B) | mRNA expression of IL-17 vs PBS treatment group (IL-17; listed as B) | mRNA expression of IL-17 vs PBS control (C) (IL-17; [4])
1 | C[N+](C)(C)CC(=O)[O-] [betaine, trimethylglycine] | considerable increase | 15.70 | statistically significant reduction | statistically significant reduction | statistically significant reduction | statistically significant reduction | statistically significant reduction | statistically significant reduction | – | – | – | – | – | –
2 | C[N+](C)(C)CC(O)CC(=O)[O-] (stereo not shown) [carnitine, 3-hydroxy-4-(trimethylazaniumyl)butanoate] | increased | ~19.0 | statistically significant reduction | statistically significant reduction | statistically significant reduction | – | – | – | 63 | reduced corneal staining | statistically significant reduction | statistically significant reduction; also recorded: lowest expression level | statistically significant reduction; also recorded: lowest expression level | statistically significant reduction
